Key:
[1] = Mg-based system (Rajbanshi et al. 2012); cited from earlier work
[2] = Pairwise competitive crystallization with L1, K-based system
From the text: (§1) The experiments described below were generally conducted as described above and as described in Rajbanshi et al. 2012.
For the K-based system, pairwise competitive crystallizations with L1 gave SO4^2/SeO4^2− selectivity and SO4^2−/CrO4^2− selectivity ratios of 13.3 and 1.1, respectively. The potassium capsule was the smallest of the three systems (d(N . . . N)=9.21 Å).

[3] = Sulfate separation and L1 recycling, Mg-based system, Simulant 1
Experimental: For comparison purposes, solid L1.2H2O (478 mg, 0.88 mmol) and Mg(NO3)2 (113 mg, 0.44 mmol) were added to 10 mL of Simulant 1 solution (Table 1) containing 0.44 mmol SO4^2−. The mixture was stirred magnetically at room temperature for 48 h, and the resulting solid was filtered, washed with water, and dried. The identity of the crystalline product, MgSO4(L1)2(H2O)6 (Compound 3) was confirmed by PXRD and FTIR spectroscopy.
To recover and recycle L1, crystals of Compound 3 (457 mg, 0.368 mmol) were dissolved in 1 M HNO3 (1 mL) to form a clear solution to which was added 1 M NaOH (2 mL). The mixture was stirred at room temperature overnight, and the resulting solid was filtered, washed with water, and dried. Yield: 388 mg. […] The solid mixture of L1.2H2O and Mg(OH)2 could be recycled by adding it to a fresh solution of the simulant, thereby initiating another separation cycle.
The recovered solid L1 and magnesium hydroxide were then added to a fresh simulant solution to start another cycle. Such cycling was repeated twice more. […] This established that the ligand is robust enough to survive at least three recovery cycles. Although this magnesium-based system is not applicable to the full alkaline conditions encountered in the nuclear waste, the ease of operation coupled with high efficiency and good ligand recyclability opens the door to other industrial sulfate separations from simpler, less basic aqueous solutions.

[4] = Relative solubility in water; type: physicochemical; details: pure water
From the text: The final crystalline solid was isolated in 90% yield, and its PXRD and FTIR spectra corresponded to those of pure Compound 1 (FIG. 4). The relatively long reaction time required to convert L1 to Compound 1 appeared to proceed via a three-phase process involving slow dissolution of L1 and its recrystallization into Compound 1.

[5] = Pairwise competitive crystallization with L1, Na-based system
Experimental: as §1
To assess the size recognition of the crystalline capsule in the Na-based system, similar pairwise competitive crystallization experiments were performed with L1 (two equivalents) and Na2SO4/Na2SeO4 mixtures (one equivalent each) in H2O/MeOH. […] The SO4^2−/SeO4^2− molar ratio found in the crystalline solid resulting from the competitive crystallization was 31.3, indicating strong size recognition for SO4^2−. […] The increased SO4^2−/SeO4^2− selectivity in the Na-based system may be attributed to the smaller size of the Na capsule (d(N . . . N)=9.51 Å) compared to the Mg capsule (d(N . . . N)=9.65 Å), which favored the smaller sulphate anion.
In comparison with the good SO4^2−/SeO4^2− selectivity observed in the Na-based crystallizations, the competitive crystallization experiment involving a Na2SO4/Na2CrO4 mixture under similar conditions yielded crystals with a SO4^2−/CrO4^2− ratio of only 2.0. […] As a result, binding of chromate is inherently favored due to its stronger hydrogen bond acceptor ability compared to sulphate, a factor that apparently offsets much of the size discrimination effect.

solubility relative to Compound 1 [4]: less soluble than Compound 1
SMILES: O=C(NCCN(CCNC(=O)Nc1cccnc1)CCNC(=O)Nc1cccnc1)Nc1cccnc1 [Compound L1]
SO4^2−/SeO4^2− ratio [1]: 3
SO4^2−/CrO4^2− selectivity ratio [2]: 1.1
SO4^2−/SeO4^2− selectivity ratio [2]: 13.3
recovery of sulfate ([3]; Simulant 1, first listed cycle): 99.6%
recovery of sulfate ([3]; Simulant 1, second listed cycle): 99.4%
recovery of sulfate ([3]; Simulant 1, third listed cycle): 97.9%
molar ratio of sulphate over competing carbonate in crystals ([5]; L1 2 equiv, Na2SO4 and Na2CO3 1 equiv each, H2O/MeOH, elemental analysis): 11.5
molar ratio of sulphate over competing sulphite in crystals ([5]; L1 2 equiv, Na2SO4 and Na2SO3 1 equiv each, H2O/MeOH, elemental analysis): 5.9
SO4^2−/CrO4^2− ratio in crystals ([5]; Na2SO4/Na2CrO4 mixture): 2.0

Source: patent US9260326B2, “Selective oxoanion separation using a tripodal ligand” (UT-BATTELLE, LLC, priority 2012, dated 2016)
